On the set-up of series [1]: method as in Damle et al. [2001]. To be noted: after oral administration; ref Damle et al. [2001]; cited from earlier work.
Series [2] has as its target T1, CYP2A6 (Homo sapiens, UniProt P11509).
T1 sequence (P11509 1-494): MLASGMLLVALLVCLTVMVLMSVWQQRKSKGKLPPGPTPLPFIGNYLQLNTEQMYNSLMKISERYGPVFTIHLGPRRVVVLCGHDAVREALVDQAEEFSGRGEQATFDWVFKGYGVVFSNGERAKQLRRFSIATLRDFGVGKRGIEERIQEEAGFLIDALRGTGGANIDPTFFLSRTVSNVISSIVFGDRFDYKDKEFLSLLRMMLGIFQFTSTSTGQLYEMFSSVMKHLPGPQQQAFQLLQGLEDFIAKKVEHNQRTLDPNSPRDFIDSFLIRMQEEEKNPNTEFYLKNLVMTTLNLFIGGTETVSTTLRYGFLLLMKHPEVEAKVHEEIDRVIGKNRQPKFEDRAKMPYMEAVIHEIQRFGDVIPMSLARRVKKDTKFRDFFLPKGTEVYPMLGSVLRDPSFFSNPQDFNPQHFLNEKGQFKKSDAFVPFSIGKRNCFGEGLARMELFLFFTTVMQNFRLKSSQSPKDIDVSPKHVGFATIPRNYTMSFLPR
Description: 5-FU formation from FT enantiomers by cDNA-expressed CYP2A6 (kinetics, velocity, RAF contribution). The settings on record: CYP2A6; RAF method; 30 μmol/L. An excerpt: Human hepatic 9000g supernatant (S9) and cytosolic fraction were purchased from XenoTech, LLC. (pooled preparations from 20 donors; Kansas City, KS). Human hepatic microsomes from five individuals (HG32, HH94, HH81, HH74, and HH31), a pooled preparation from 150 donors, and microsomes prepared from insect cell lines expressing CYP1A2, 2A6, 2B6, 2C8, 2C9, 2C19, 2D6, 2E1, and 3A4 were purchased from BD Gentest. Insect microsomes expressing only NADPH-P450 oxidoreductase and cytochrome b5 were also used as control. These enzymes were stored at −80°C until use.
Metabolic reaction by S9 and cytosol (each 2 mg protein/mL) was carried out in 100 mmol/L phosphate (pH 7.4) because TPase requires phosphate ions for catalyzing the reaction. In some cases, insect microsomes expressing recombinant CYP isoforms (20 pmol/mL) were added to the incubation mixtures in either 50, 100 mmol/L phosphate (pH 7.4) or 100 mmol/L Tris (pH 7.4), depending on supplier's recommendation. Microsomal protein concentrations of all cDNA-expressed CYPs were adjusted to 0.5 mg protein/mL by adding control microsomes expressing NADPH-P450 oxidoreductase and cytochrome b5. The reaction for the assay of FT metabolism was initiated by adding the substrate, following preincubation for 5 min at 37°C. After incubation at 37°C, the reaction was stopped by adding three volumes of ice-cold acetonitrile. The incubation times of microsomes, cytosol, and S9 were 15, 15, and 30 min, respectively. After centrifugation, the supernatant was collected and stored at −80°C until the determination of 5-FU. Because a small portion of FT is nonenzymatically converted to 5-FU, the content of 5-FU spontaneously formed was subtracted from total yield obtained after incubation to correct the activity. The spontaneous degradation of FT to 5-FU was evaluated using enzymes inactivated by heating them at 100°C for 5 min.
Concentration of 5-FU was determined using a LC/MS/MS system. The analytical system consisted of a HP1100 liquid chromatograph (Agilent Technologies, CA) coupled with an API4000 triple-quadrupole mass spectrometer (Applied Biosystems, CA) equipped with Turbo V source and ESI interface. Sample separation was performed using an Unison UK-Amino column (2.0 mm i.d. × 100 mm, 3 μm; Imtakt, Kyoto, Japan) at a flow rate of 0.2 mL/min at 40°C. The mobile phase consisted of 10 mmol/L ammonium acetate/acetonitrile 10:90 (v/v). […] For quantification of 5-FU, the calibration curves were linear over the range 2–1000 ng/mL.
Kinetic studies were performed using microsomes from five human livers (HG32, HH94, HH81, HH74, and HH31), cDNA-expressed CYP isoforms, or pooled human hepatic cytosol. In determining kinetic parameters, FT concentration ranged from 0.03 to 10 mmol/L. All reactions were performed in a linear range of 5-FU formation with respect to protein or CYP concentrations and incubation time.
Intrinsic clearance (CLint) was calculated as a ratio of V/S where V and S were the metabolite formation rate and the concentration of a probe substrate for CYP isoform, respectively, when the substrate concentration was well below the Km value. The RAF for each CYP isoform was calculated according to equation (3) (Venkatakrishnan et al. [2000]). [drawing 3] (3) n = 1A2, 2A6, 2C19, or 2E1.
The contribution of CYPn to the metabolism of R- and S-FT at their concentration of 30 μmol/L was subsequently calculated using equation (4). [drawing 4] (4) VCYPn = 5-FU formation rate in cDNA-expressed CYPn.

Series [3] deals with recombinant human CYP2B6, 2C8, 2C9, 2D6, and 3A4. Description: 5-FU formation from FT enantiomers by other cDNA-expressed CYP isoforms. It is filed as in vitro ADME. The settings on record: other isoforms than CYP1A2, 2A6, 2C19, 2E1; FT enantiomers 0.03 mmol/L; 20 pmol CYP/mL. As to the method:
(pooled preparations from 20 donors; Kansas City, KS). […] Insect microsomes expressing only NADPH-P450 oxidoreductase and cytochrome b5 were also used as control. These enzymes were stored at −80°C until use.
5-FU formed from FT was subjected to extensive metabolism by dihydropyrimidine dehydrogenase (DPD) contaminating human hepatic preparations. Therefore, a potent DPD inhibitor, CDHP, was always added to avoid the unexpected loss of 5-FU (Ikeda et al. [2000]; Yamamiya et al. [2010]). Incubation mixture for hepatic microsomal metabolism contained FT, microsomes (1 mg protein/mL), 0.1 mmol/L CDHP, and an NADPH-generating system consisting of 1.3 mmol/L β-NADP^+, 3.3 mmol/L glucose-6-phosphate, 3.3 mmol/L magnesium chloride, and 0.4 units glucose-6-phosphate dehydrogenase in 100 mmol/L Tris (pH 7.4). Metabolic reaction by S9 and cytosol (each 2 mg protein/mL) was carried out in 100 mmol/L phosphate (pH 7.4) because TPase requires phosphate ions for catalyzing the reaction. […] The spontaneous degradation of FT to 5-FU was evaluated using enzymes inactivated by heating them at 100°C for 5 min.
Concentration of 5-FU was determined using a LC/MS/MS system. […] For quantification of 5-FU, the calibration curves were linear over the range 2–1000 ng/mL. […]

On to `O=c1[nH]c(=O)n(C2CCCO2)cc1F` (stereo not drawn) [FT, 5-fluoro-1-(2-tetrahydrofuryl)-2, 4 (1H, 3H)-pyrimidinedione, reference compound], for which, in series [1], the oral bioavailability result is “approximately 100%”. The CYP contribution result in series [2] is reported as “over 85%”. In addition, the “activity for the enantioselective metabolism of FT (in words)” value in series [3] is listed as “negligible activity”.

The values are drawn from PMC4184574, “Enantioselectivity in the cytochrome P450-dependent conversion of tegafur to 5-fluorouracil in human liver microsomes” (Pharmacology Research & Perspectives, 2013).
